# Test results reported in US20040235922A1, “Compositions and methods for inducing adipose tissue cell death” (priority 2003, published 2004).
# Entries after “also recorded” stand apart in the source; their conditions may differ. Structures can show the parent of a compound that is named as a salt. Marks after values point to notes of the source that are not given here.
# Experiments:
# [1] = 21 day oral (diet) treatment of mice: body weight, food intake, feed efficiency, body temperature, body composition by PIXImus densitometry (Example 1); type: in vivo; settings: 21 days, ICR mice
# Procedure: (§1) The effects of clenbuterol, a β2-AR agonist, and ractopamine, a β1/β2-AR agonist, on growth, adiposity and adipose tissue apoptosis in male and female mice have been tested by feeding diets containing control, 200 ppm clenbuterol, or 200 or 800 ppm ractopamine. Food intake (FI) was measured daily; body weight (BW) and temperatures (BT) were measured on days 0, 3, 7, 10, 14, 17, and 20. On day 21 mice were sacrificed, body composition was determined using PIXImus densitometry, and muscle and adipose tissues were collected. There were no treatment effects on BT, FI, BW, feed efficiency or body composition. Retroperitoneal (Rp) and epididymal/parametrial (Epi/Par) fat pad masses were reduced in both 800 ppm ractopamine (40±3 and 207±20 mg, respectively) and clenbuterol (35±7 and 211±22 mg) treated mice compared to control (66±8 and 319±30 mg, p<0.05). Brown adipose tissue (BAT) mass was greater (p<0.05) in clenbuterol treated mice compared to other treatments. Adipose tissue apoptosis (% DNA fragmentation) was increased in Epi/Par fat pads in clenbuterol (5.2+1.1%) and 800 ppm ractopamine (4.1±0.8%) treated mice compared to control (1.7+0.4%, p<0.05).
# (§2) Animals: Five week old male (n=20) and female (n=20) ICR mice (Harlan Research Laboratories, Indianapolis, Ind.) were allowed to acclimate for one week prior to the experiment start date. Animals were housed singly in suspended wire cages and were provided ground rodent chow (ProLab® RMH 2500; Purina Mills, St. Louis, Mo.) and water ad libitum. Ambient room temperature was maintained and the light/dark cycle was 0600/1800 hours, respectively. Animals were cared for in accordance with the Guide for the Care and Use of Laboratory Animals (Institute of Laboratory Animal Resources Commission on Life Sciences National Research Council. Guide for the Care and Use of Laboratory Animals. National Academy of Sciences, 1996). Prior to the start of the study, animals were briefly anesthetized with isofluorane and an IPPT-200 transponder (programmable ID and temperature, BMDS, Seaford, Del.) was implanted subcutaneously between the scapulae.
# (§3) Materials: Test articles included clenbuterol (Sigma Chemical Company, St. Louis, Mo., item # C5423) and ractopamine hydrochloride—Paylean® 9 (Elanco Animal Health, Indianapolis, Ind.). Clenbuterol is available as a pure product, and ractopamine is readily available as a type A medicated article. Paylean® 9 contains about 20 g ractopamine hydrochloride per kilogram in a ground corncob base. In order to achieve doses of 200 and 800 ppm it was necessary to add about […] of product per kilogram of diet. Control and clenbuterol diets were prepared with about 80 g of alphacel, which is a diluent used to mimic the effect of the corncob in the ractopamine product. The dose of clenbuterol used in this experiment was similar to those used in previous experiments with mice (Agbenyega E T, and Wareham A C. Effect of clenbuterol on skeletal muscle atrophy in mice induced by the glucocorticoid dexamethasone. Comp Biochem Physiol Comp Physiol 1992;102:141-145, Rothwell N. J., and Stock M J. Modification of body composition by clenbuterol in normal and dystrophic (mdx) mice. Biosci Rep 1985;5:755-760, Hyltander A, Svaninger G, and Lundholm K. The effect of clenbuterol on body composition in spontaneously eating tumour-bearing mice. Biosci Rep 1993;13:325-331, Hayes A, and Williams DA. Long-term clenbuterol administration alters the isometric contractile properties of skeletal muscle from normal and dystrophin-deficient mdx mice. Clin Exp Pharmacol Physiol 1994;21:757-765, Dupont-Versteegden EE. Exercise and clenbuterol as strategies to decrease the progression of muscular dystrophy in mdx mice. J Appl Physiol 1996;80:734-741).
# Daily Observations: Food intake was measured daily, while body weight and body temperatures were measured on days 0, 3, 7, 10, 14, 17, and 20 at approximately the same time of day (1300 hours) during the treatment period. […]
# [2] = tested on: Epi/Par fat pads (white adipose tissue); assay: Adipose tissue apoptosis assay, % DNA fragmentation (Example 1); type: in vivo, mice; settings: 21 days
# Procedure: as §2, §3
# DNA Isolation and Apoptosis Assay: Only the Epi and Par fat pads had sufficient tissue for the apoptosis assay. Apoptosis was assayed in two ways: DNA isolated from fat tissue was separated into two fractions: fragmented and genomic DNA. First, the fragmented DNA was run on an agarose gel in order to identify a ladder pattern of internucleosomal DNA degradation that is characteristic of apoptosis. Second, apoptosis was quantified as the ratio of fragmented- to total-DNA, multiplied by 100. Briefly, approximately 50 mg of the Epi or Par white adipose tissue was homogenized in lysis buffer (10 mM Tris-HCL, pH 8.0, 10 mM EDTA, pH 8.0; 0.5% Triton X-100) and centrifuged at 14,000× g for 15 min to separate fragmented DNA from genomic DNA. The supernatant, containing fragmented DNA, was extracted with phenol-chloroform-isoamyl alcohol (25:24:1), and the DNA was precipitated by adding polyacryl carrier (Molecular Research Center, Inc., Cincinnati, Ohio) and ethanol. Genomic (non-fragmented) DNA was extracted from the pellet with DNAzol and the polyacryl carrier. DNA in each fraction was quantified by the PicoGreen method (Molecular Probes, Inc., Eugene, Oreg.) and fluorescence was measured using a SpectroMax Gemini (Molecular Devices).
# Statistical Analysis: Analysis of variance (SAS) was used to determine significance of treatment and gender effects. […]
# [3] = tested on: male and female ICR mice; assay: 21 day oral (diet) treatment of mice: selected tissue weights, fat pads, BAT, muscle, organs (Example 1); type: in vivo; settings: 21 days; for BAT tissue weight, mean / Biceps tissue weight, mean / Epi/Par tissue weight, mean / Ing tissue weight, mean / Rp tissue weight, mean: male and female mice; for Par weight, mean: females; for Epi weight, mean: males
# Procedure: as §1, §2
# as §3, with “1996;80:734-741). […]” for “1996;80:734-741).”
# [4] = tested on: cardiac myocytes; settings: via β1-AR stimulation; cited from earlier work
# [5] = tested on: adipocytes; settings: leptin administration; cited from earlier work
# [6] = 200 ppm clenbuterol, 800 ppm ractopamine in diet, p<0.05, hydrochloride
compound,measurement,setting,value
"CC(CCc1ccc(O)cc1)NCC(O)c1ccc(O)cc1 (racemic) [Ractopamine, ractopamine hydrochloride]",Cumulative Feed Intake,[1]; 200 ppm in diet,5.92 g
same,Densitometry Bone Mineral Content,[1]; 200 ppm in diet,0.67 g
same,Densitometry Fat,[1]; 200 ppm in diet,3.00 g
same,Densitometry Lean,[1]; 200 ppm in diet,25.63 g
same,Feed Efficiency,[1]; 200 ppm in diet,15.8
same,Final Body Weight,[1]; 200 ppm in diet,31.4 g
same,Weight Gain,[1]; 200 ppm in diet,8.25 g
same,Cumulative Feed Intake,[1]; 800 ppm in diet,6.39 g
same,Densitometry Bone Mineral Content,[1]; 800 ppm in diet,0.67 g
same,Densitometry Fat,[1]; 800 ppm in diet,3.01 g
same,Densitometry Lean,[1]; 800 ppm in diet,27.42 g
same,Feed Efficiency,[1]; 800 ppm in diet,16.6
same,Final Body Weight,[1]; 800 ppm in diet,31.5 g
same,Weight Gain,[1]; 800 ppm in diet,8.32 g
same,"Effect on body temperature, food intake, body weight, feed efficiency, body composition","[1]; diet, hydrochloride",not significantly affected; also recorded: Neither clenbuterol nor ractopamine affected
same,Percent DNA fragmentation (apoptosis) in the Epi/Par fat pad compared to control,[2]; [6],significant increase in apoptosis
same,Adipose tissue apoptosis (% DNA fragmentation) in Epi/Par fat pads,"[2]; 800 ppm in diet, mice, control 1.7±0.4%",4.1±0.8%
same,DNA fragmentation in retroperitoneal or inguinal fat pads,"[2]; diet, mice",Neither clenbuterol nor ractopamine treatments increased
same,Rp and Epi/Par fat pad weights compared to control,[3]; [6],reduced; also recorded: decreased
same,"BAT tissue weight, mean",[3]; 200 ppm in diet,.096
same,"Biceps tissue weight, mean",[3]; 200 ppm in diet,.128
same,"Epi/Par tissue weight, mean",[3]; 200 ppm in diet,.295
same,"Ing tissue weight, mean",[3]; 200 ppm in diet,.230
same,"Rp tissue weight, mean",[3]; 200 ppm in diet,.058
same,"BAT tissue weight, mean",[3]; 800 ppm in diet,.095
same,"Biceps tissue weight, mean",[3]; 800 ppm in diet,.158
same,"Epi/Par tissue weight, mean",[3]; 800 ppm in diet,.207
same,"Ing tissue weight, mean",[3]; 800 ppm in diet,.176
same,"Rp tissue weight, mean",[3]; 800 ppm in diet,.039
same,Retroperitoneal (Rp) fat pad mass,"[3]; 800 ppm in diet, mice, control 66±8 mg",40 ± 3 mg
same,Epididymal/parametrial (Epi/Par) fat pad mass,"[3]; 800 ppm in diet, mice, control 319±30 mg",207 ± 20 mg
same,"Muscle mass / muscle weight, body protein or fat content","[3]; diet, ICR mice",no effect
same,"Par weight, mean",[3]; 200 ppm in diet,.22^b
same,"Par weight, mean",[3]; 800 ppm in diet,.22^b
same,"Epi weight, mean",[3]; 200 ppm in diet,.36^a
same,"Epi weight, mean",[3]; 800 ppm in diet,.19^b
NC[C@H](O)c1ccc(O)c(O)c1 [norepinephrine],Apoptosis of cardiac myocytes,[4],induce apoptosis
"leptin: leptin, administration shown in previous experiments to increase apoptosis of adipocytes",Apoptosis of adipocytes,[5],increase apoptosis
